Results taken from US20250092058A1 (priority 2018, published 2025).

Experiments:
[1] = system: CRC PDX27454 tumors; conditions: spray-dried FL118-HPβCD powder in saline with 5% PG, p.o. weekly ×4, half MTD
Method: Colorectal cancer (CRC) patient-derived xenograft (PDX) models were used to evaluate their in vivo antitumor activity. […] Treatments were administered weekly for four weeks on days 0, 7, 14 and 21 and tumor volumes and individual body weights were monitored.
Human xenograft tumors used. In this invention disclose, human SW620 (colorectal), HT29 (colorectal) and HT-3 (retinoblastoma) cancer cell line-established xenograft tumors were used. Human tumor cell line-derived xenograft tumors are initially established by subcutaneously injecting 2-5×10^6 cultured cancer cells in a volume of 100-150 p L medium into the flank area of severe combined immunodeficiency (SCID) mice. The derived tumors are then passed a couple of generations in mice by transplanting 30-50 mg non-necrotic tumor mass via a trocar for experiments or maintenance. […] PDX tumors were originally established on severe Combined Immunodeficiency (SCID) mice from pancreatic and colorectal cancer patient tumor tissues obtained from metastatic sites of the disease in the clinic.
Specifically, PDX tumors were originally established on severe Combined Immunodeficiency (SCID) mice from pancreatic and colorectal cancer patient tumor tissues obtained from metastatic sites of the disease in the clinic. […] The vehicle is the same think aqueous suspension without drug. Experimental SCID mice were subcutaneously implanted with 30-40 mg individual PDX tumors (isolated from maintenance mice) at the flank area for PDX27454 of SCID mice. Treatment with vehicle or a drug of 7Q-series (2) was initiated 7-14 days after the transplanted tumors reached 100-200 mm^3 (designated day 0). The animal model of PDX tumors was orally treated weekly for 4 times (one cycle/course, as shown with black arrows) or only one time drug administration.

[2] = system: survivin, Mcl-1, XIAP, cIAP2; assay: Western blots of anti-/pro-apoptotic proteins in PANC1 and Mia2; type: cell-based, human; conditions: 16 h to 48 h, dose-dependent
Method: Western blotting/Immunoblotting. […] Fifty μg total protein from each sample were heated at 95° C. for 5 minutes after mixing with equal volume of 2×SDS loading buffer. Samples were separated on 12-15% SDS-polyacrylamide gel electrophoresis (SDS-PAGE) gels and electrotransferred to Pure Nitrocellulose Membranes (Bio-Rad, Hercules, CA). The membrane was then blocked in 5% skim milk in TBS-T buffer (20 mM Tris/HCl pH 7.5, 0.137 M NaCl, and 0.1% Tween 20) at room temperature for 2-3 hours. Next, the membrane was incubated with different primary antibodies in TBS-T containing 5% BSA overnight at 4° C. in the range of dilutions from 1:500 to 1:2000. After washing with TBS-T, the membrane was incubated in TBS-T buffer containing 5% skim milk and corresponding secondary antibody (1:5000) for 45-60 minutes at room temperature with shaking. Protein of interest was detected using Western Lightning Plus—ECL (Perkin Elmer, Waltham, MA) and visualized by various times (3-120 seconds) of exposure. Actin was detected as the internal control to normalize total protein loading for each sample.

[3] = system: A2780CP70-GFPcODC cells; assay: GFPcODC drug-resistant cell tracking, A2780CP; type: cell-based, human; conditions: 10 nM and 100 nM
From the text: (§1) Generation of A2780-GFPcODC, A2780CP-GFPcODC and PANC1GFPcODC cells and fluorescence microscopy to detect stem-like and drug resistant green cells. The retroviral expression vector pQCXIN-ZsGreen-cODC (ornithine decarboxylase), containing a green fluorescence marker, was kindly provided by Dr. Frank Pajonk (Vlashi E, et al., In vivo imaging, tracking, and targeting of cancer stem cells. J Natl Cancer Inst. 2009; 101: 350-9). The retroviral particles collected from packaging cells that transfected with the above vector were infected into A2780, A2780CP and PANC1 cells, respectively. The transfected cell pool was used for experiments. The transfected cells were treated with and without cisplatin or FL118 alone or in combination for defined times. Cell images were acquired digitally using the Olympus IX73 Inverted Score s (Olympus). Percentages of living cells were obtained from the average of the total cells counted from 10 microscopic fields.
To test this, we used a novel approach developed in Dr. Pajonk's lab for the live tracking of drug resistant cells (Vlashi E, et al., In vivo imaging, tracking, and targeting of cancer stem cells. J Natl Cancer Inst. 2009; 101: 350-9). This approach takes advantage of reduced 26S proteasome activity of drug resistant cells. […]

[4] = system: PANC1-GFPcODC cells; assay: Trypan blue exclusion, PANC1-GFPcODC cells; type: cell-based, human; conditions: 4-day treatment; 20 μM cisplatin, 10 nM FL118, or both
From the text: as §1, with “The transfected cells were treated with and without cisplatin or FL118 alone or in combination for defined times.” left out
Next, we applied the same system to generate pancreatic cancer PANC1-GFPcODC cells.

[5] = system: PANC1 cells; assay: Matrigel CSC sphere formation; type: cell-based, human; conditions: 1, 10 and 100 nM, 20 days
Method: Matrigel stem cell cultural assay. […] Spheres were maintained in Improved MEM containing 20 ng/ml epidermal growth factor, 10 ng/ml basic fibroblast growth factor, […] insulin and 0.4% Bovine Serum Albumin. PANC1cells were plated at a density of 1000 cells/well in 24-well ultralow attachment plates (Sigma-Aldrich). Briefly, 1000 PANC1 cells were suspended in […] medium and mixed thoroughly with […] BD Matrigel™ (BD Bioscience, San Jose, CA, USA). […] Upon solidification, FL118 treatment was administered. Spheres in each well were set in the plate to grow for 20 days and then quantitated visually under a microscope at the magnification of 10×.
To further confirm these findings, we alternatively used the typical matrigel-based CSC sphere formation assay which is know to more closely mimic in vivo situations. In this assay only drug resistant stem-like cancer cells are able to form spheres. […] We performed colony formation of CD44 stem cell marker-positive cells using the stem-cell culture condition. […] Thus, the GFPcODC-positive cell model may be an extremely drug resistant cell model or a less actual cell mimic system after transfection of the GFPcODC-expressing vector and selection process for obtaining GFPcODC-expressing cells, which may not fully mimic the CD44 stem cell marker-positive drug resistant cells. […]

CC[C@@]1(O)C(=O)OCc2c1cc1n(c2=O)Cc2cc3cc4c(cc3nc2-1)OCO4 [FL118, 10,11-methylenedioxy-camptothecin]
antitumor activity [1]: great antitumor activity | toxicity (mouse body weight changes) [1]: no toxicity at all | expression of antiapoptotic proteins (XIAP, cIAP2, Mcl-1 or survivin) [2]: differentially modulates the expression of antiapoptotic proteins | decrease of GFPcODC-positive drug-resistant cell population [3]: more than 50% | cell death [4]: ~18% | sphere formation [5]: high efficacy in inhibiting sphere formation
